# “And” between values parts separate entries of the source, which are not always exact repeats. Equal entries are not always repeated. “Also recorded” adds a separate entry of the source.
# Columns and labels:
# H929 cells = test: Animal experiment for multiple myeloma: subcutaneous H929 tumors in nude mice; type: in vivo, BALB/C nude mice; conditions: for Tumor volume, mean / Tumor volume, individual mice No. 1-4: caudal vein
# Protocol: (1) Cell line: human multiple myeloma cells (H929 cells) (from ATCC, USA. The cells were passaged and preserved in the applicant's laboratory), were cultured in a 1640 culture medium (containing 10% fetus bovine serum).
# (2) Experimental animals: Male BALB/C nude mice (4-6 week old, purchased from Shanghai Sippr-BK laboratory animal Co. Ltd), were housed in an SPF condition (Center Laborotory Animal Room, Shanghai Tenth People's Hospital).
# The cells were cultured in 1640 a 1640 culture medium (containing 10% fetus bovine serum, pH 7.2) supplemented with 2 mmol/L glutamine. The resultant was cultured in a incubator at 37° C. under 5% CO2 environment.
# The 1640 medium containing 3.5×10^6 H929 cells was injected subcutaneously into the right axilla of the nude mice, and when the tumors grew to a measurable size, the mice were randomly assigned into the control group and the administration group. The nude mice in the administration group were injected through caudal vein with 4-hydroxy salicylanilide at 50 mg/kg and 100 mg/kg per day. The nude mice in the control group were injected with the same volume of solvent (200 μL, 5% DMSO+4% castor oil+91% normal saline). The tumor sizes were measured every two days (measuring the length and width of the tumor, tumor volume=0.5×(width)^2×length). The mice were sacrificed after a 22-day administration and the tumors were taken for taking photos.
# SUDHL-4 cells = test: CCK8 cytotoxicity, SUDHL-4 lymphoma cells; type: cell-based; conditions: Homo sapiens, SU-DHL-4, 72 h
# Protocol: (§1) A single-cell suspension of human multiple myeloma cells (H929 cells, OPM2 cells, U266 cells, OCI-MY5 cells, RPMI 8266 cells) was taken for cell counting, and the cell concentration was adjusted to 2×10^5 cells/mL. 95 μL of the above cell suspension was added into each well of a 96-well culture plate, and then 5 μL of the drug prepared with the medium was added at different concentrations, while the same volume of culture medium was added in the control group. Three parallel wells were set in each group. The plate was subjected to continuous culture for 72 h. 2 hours before the end of the culture, 10 μL of CCK8 reagent was added into each well, and the plate was continued to culture in a CO2 incubator. After 2 hours, the OD value of each well at 450 nm was detected by an automatic microplate reader. Cell viability and inhibition rate were calculated: cell viability (%)=(OD mean of experimental well/OD mean of control well)×100%. Cell inhibition rate (%)=100%−cell viability (%). The fitting function was used to determine the IC50 of the drug concentration when the cell growth was inhibited by 50%. The experiment was in triplicate.
# (§2) Cell lines: human lymphoma cells (SUDHL-4 cells, OCI-LY1 cells, OCI-LY8 cells, DB cells, NU-DUL-1 cells, U2932 cells, TMD8 cells)(from ATCC. USA. The cells were passaged and preserved in the applicant's laboratory). IMDM (Gibco Co., USA). […]
# DB cells = test: CCK8 cytotoxicity, DB lymphoma cells; type: cell-based; conditions: Homo sapiens, 72 h
# Protocol: as §1, §2
smiles,measurement,setting,value
O=C(Nc1ccc(O)cc1)c1ccccc1O,"Tumor volume, mean","H929 cells; 50 mg/kg per day, day 18",1.79 cm^3
same,"Tumor volume, individual mice No. 1-4","H929 cells; 50 mg/kg per day, day 20",2.59 cm^3 and 2.22 cm^3 and 1.77 cm^3 and 2.12 cm^3
same,"Tumor volume, mean","H929 cells; 50 mg/kg per day, day 20",2.17 cm^3
same,"Tumor volume, individual mice No. 1-4","H929 cells; 50 mg/kg per day, day 22",3.39 cm^3 and 2.44 cm^3 and 2.19 cm^3 and 2.89 cm^3
same,"Tumor volume, mean","H929 cells; 50 mg/kg per day, day 22",2.72 cm^3
same,"Tumor volume, individual mice No. 1-4","H929 cells; 100 mg/kg per day, day 0",0.10 cm^3 and 0.08 cm^3 and 0.04 cm^3 and 0.07 cm^3
same,"Tumor volume, mean","H929 cells; 100 mg/kg per day, day 0",0.07 cm^3
same,"Tumor volume, individual mice No. 1-4","H929 cells; 100 mg/kg per day, day 2",0.12 cm^3 and 0.09 cm^3 and 0.08 cm^3 (2×)
same,"Tumor volume, mean","H929 cells; 100 mg/kg per day, day 2",0.09 cm^3
same,"Tumor volume, individual mice No. 1-4","H929 cells; 100 mg/kg per day, day 4",0.13 cm^3 (2×) and 0.14 cm^3 and 0.10 cm^3
same,"Tumor volume, mean","H929 cells; 100 mg/kg per day, day 4",0.13 cm^3
same,"Tumor volume, individual mice No. 1-4","H929 cells; 100 mg/kg per day, day 6",0.17 cm^3 (2×) and 0.15 cm^3 and 0.13 cm^3
same,"Tumor volume, mean","H929 cells; 100 mg/kg per day, day 6",0.16 cm^3
same,"Tumor volume, individual mice No. 1-4","H929 cells; 100 mg/kg per day, day 8",0.26 cm^3 and 0.20 cm^3 and 0.25 cm^3 and 0.17 cm^3
same,"Tumor volume, mean","H929 cells; 100 mg/kg per day, day 8",0.22 cm^3
same,"Tumor volume, individual mice No. 1-4","H929 cells; 100 mg/kg per day, day 10",0.39 cm^3 and 0.23 cm^3 (2×) and 0.31 cm^3
same,"Tumor volume, mean","H929 cells; 100 mg/kg per day, day 10",0.29 cm^3
same,"Tumor volume, individual mice No. 1-4","H929 cells; 100 mg/kg per day, day 12",0.53 cm^3 and 0.31 cm^3 and 0.39 cm^3 and 0.25 cm^3
same,"Tumor volume, mean","H929 cells; 100 mg/kg per day, day 12",0.37 cm^3
same,"Tumor volume, individual mice No. 1-4","H929 cells; 100 mg/kg per day, day 14",0.77 cm^3 and 0.42 cm^3 and 0.44 cm^3 and 0.27 cm^3
same,"Tumor volume, mean","H929 cells; 100 mg/kg per day, day 14",0.47 cm^3
same,"Tumor volume, individual mice No. 1-4","H929 cells; 100 mg/kg per day, day 16",0.93 cm^3 and 0.49 cm^3 and 0.50 cm^3 and 0.32 cm^3
same,"Tumor volume, mean","H929 cells; 100 mg/kg per day, day 16",0.56 cm^3
same,"Tumor volume, individual mice No. 1-4","H929 cells; 100 mg/kg per day, day 18",1.20 cm^3 and 0.57 cm^3 (2×) and 0.31 cm^3
same,"Tumor volume, mean","H929 cells; 100 mg/kg per day, day 18",0.66 cm^3
same,"Tumor volume, individual mice No. 1-4","H929 cells; 100 mg/kg per day, day 20",1.27 cm^3 and 0.63 cm^3 and 0.65 cm^3 and 0.34 cm^3
same,"Tumor volume, mean","H929 cells; 100 mg/kg per day, day 20",0.72 cm^3
same,"Tumor volume, individual mice No. 1-4","H929 cells; 100 mg/kg per day, day 22",1.39 cm^3 and 0.71 cm^3 and 0.80 cm^3 and 0.40 cm^3
same,"Tumor volume, mean","H929 cells; 100 mg/kg per day, day 22",0.82 cm^3
same,Inhibition of tumor growth in animals (in words),"H929 cells; H929 tumors in nude mice, 50 and 100 mg/kg per day, 22 days, dose-dependent, P<0.01 at day 22",significantly inhibit the tumor growth; also recorded: effective in inhibiting the growth of multiple myeloma
same,IC50,SUDHL-4 cells,73 µM
same,IC50,DB cells,178 µM

# From US20190060330A1, “APPLICATION OF 4-HYDROXY SALICYLANILIDE IN PREPARATION OF ANTI-MYELOMA OR ANTI-LYMPHOMA DRUGS” (priority 2016, published 2019)
